Test results taken from patent publication US12495798B2, “Nicotinamide compound and herbicidal composition comprising compound” (KOREA RESEARCH INSTITUTE OF CHEMICAL TECHNOLOGY, priority 2019, dated 2025).

How the values were obtained:
Assay type in all cases: in vivo
indian jointvetch = test: Herbicidal activity test against upland field weeds (foliar treatment test); set-up: key to Foliar treatment herbicidal activity, Indian jointvetch: 0 (no control); 100 (complete control); settings: 50 g ai/ha, scale 0-100
Procedure: (§1) Experimental Example 1: Herbicidal Activity Test Against Upland Field Weeds (Foliar Treatment Test) Foliar treatment was performed as follows: After filling a square plastic pot having a surface area of 350 cm^2 with horticultural soil, seeds (10˜15 grains) or rootstocks (2 pieces) of 5 kinds of grassy weeds of sorghum, barnyard grass, quack grass, crabgrass, fall panicum, and 5 kinds of broadleaf weeds of black nightshade, indian jointvetch, velvetleaf, cocklebur, bindweed, which had been stored in a low temperature (6° C.), were sown. After growing for a certain period in greenhouse conditions (average temperature 30±5° C., light/dark=14/10 hours), test compound solutions were made by diluting with a preparation solution (including 50% acetone, 0.1% Tween-20) so that the final treatment amount of the test compounds was 50 or 75 g a.i./ha. The prepared test compound solution was used for treating foliage by hand-spraying 14 mL per pot in a fume hood. After the treatment, it was managed under the same greenhouse conditions as above, and after 14 days (after 21 days if necessary), the external symptoms and efficacy were investigated according to the scale of 0 (no control) to 100 (complete control). The results of Table 7 were obtained by evaluating weed control value to the untreated control by conducting visual assessment.

crabgrass = test: as above; set-up: key to Foliar treatment herbicidal activity, Crabgrass: 0 (no control); 100 (complete control); settings: 50 g ai/ha, scale 0-100; for pest or weed control at 50 g/ha: Digitaria sanguinalis
Procedure: as §1

wheat = test: Phytotoxicity test for upland field crops (foliar treatment test); set-up: key: 0 (no harm); 9 (complete withered)
Procedure: (§2) Experimental Example 3: Phytotoxicity Test for Upland Field Crops (Foliar Treatment Test)
(§3) Foliar treatment was performed for grown crops and weeds in a square plastic pot having a surface area of 50 cm^2 filled with horticultural soil. As a fertilizer per pot, 0.5 g of horticultural mixed fertilizer (N:P:K=17:21:17) was treated by mixing in the upper soil. Five kinds of crops such as rice, wheat, corn, soybean, and cotton were sown in each pot, and after growing for a certain period in greenhouse conditions (average temperature 30±5° C., light/dark=14/10 hours), test compound solutions were made by diluting with the diluent (33% acetone, 0.1% Tween-20) so that the final treatment amount of the test compounds was 19˜300 g a.i./ha. The prepared test compound solutions were treated using a spray booth (SB6-016) at a treatment amount of 100 ml per 1 m^2 of treatment area. The treated plants were managed under the same greenhouse conditions as above, and external symptoms and phytotoxicity were investigated 7 and 14 days after treatment (after 21 days if necessary). In the evaluation of the phytotoxicity for the crop, the grade of 0 (no harm) to 9 (complete withered) was used. The results of Table 9 were obtained by evaluating crop phytotoxicity value to the untreated control.

corn = test: as above; set-up: key: 0 (no harm); 9 (complete withered)
Procedure: as §2, §3

black nightshade = test: Herbicidal activity test against upland field weeds (foliar treatment test); set-up: key to Foliar treatment herbicidal activity, black nightshade: 0 (no control); 100 (complete control); settings: 50 g ai/ha, scale 0-100; for pest or weed control at 50 g/ha: Solanum nigrum
Procedure: as §1

bindweed = test: as above; settings: 50 g ai/ha, scale 0-100
Procedure: as §1

velvetleaf = test: as above; set-up: key to Foliar treatment herbicidal activity, velvet leaf: 0 (no control); 100 (complete control); settings: 50 g ai/ha; for pest or weed control at 50 g/ha: Abutilon theophrasti, scale 0-100, read-out: Foliar treatment herbicidal activity, velvet leaf
Procedure: as §1

fall panicum = test: as above; settings: 50 g ai/ha, scale 0-100; for pest or weed control at 50 g/ha: Panicum dichotomiflorum
Procedure: as §1

barnyard grass = test: as above; set-up: key to Foliar treatment herbicidal activity, barnyard grass: 0 (no control); 100 (complete control); settings: 50 g ai/ha, scale 0-100; for pest or weed control at 50 g/ha: Echinochloa crus-galli
Procedure: as §1

cocklebur = test: as above; settings: 50 g ai/ha, scale 0-100; for pest or weed control at 50 g/ha: Xanthium strumarium
Procedure: as §1

quack grass = test: as above; set-up: key to Foliar treatment herbicidal activity, quack grass: 0 (no control); 100 (complete control); settings: 50 g ai/ha, scale 0-100
Procedure: as §1

sorghum = test: as above; set-up: key to Foliar treatment herbicidal activity, Sorghum: 0 (no control); 100 (complete control); settings: 50 g ai/ha, scale 0-100; for plant injury at 50 g/ha: Sorghum
Procedure: as §1

[1] = 50 g ai/ha, Wheat (7 days after treatment)
[2] = 50 g ai/ha, Wheat (14 days after treatment)
[3] = 100 g ai/ha, Wheat (7 days after treatment)
[4] = 100 g ai/ha, Wheat (14 days after treatment)
[5] = 50 g ai/ha, Corn (7 days after treatment)
[6] = 50 g ai/ha, Corn (14 days after treatment)
[7] = 100 g ai/ha, Corn (7 days after treatment)
[8] = 100 g ai/ha, Corn (14 days after treatment)

SMILES	pest or weed control at 50 g/ha (indian jointvetch) [%]	pest or weed control at 50 g/ha (crabgrass) [%]	Foliar treatment phytotoxicity, Wheat (wheat; [1])	Foliar treatment phytotoxicity, Wheat (wheat; [2])	Foliar treatment phytotoxicity, Wheat (wheat; [3])	Foliar treatment phytotoxicity, Wheat (wheat; [4])	Foliar treatment phytotoxicity, Corn (corn; [5])	Foliar treatment phytotoxicity, Corn (corn; [6])	Foliar treatment phytotoxicity, Corn (corn; [7])	Foliar treatment phytotoxicity, Corn (corn; [8])	pest or weed control at 50 g/ha (bindweed) [%]	pest or weed control at 50 g/ha (velvetleaf) [%]	pest or weed control at 50 g/ha (fall panicum) [%]	pest or weed control at 50 g/ha (barnyard grass) [%]	pest or weed control at 50 g/ha (cocklebur) [%]	Foliar treatment herbicidal activity, quack grass (quack grass)	plant injury at 50 g/ha (sorghum) [%]	Foliar treatment herbicidal activity, black nightshade (black nightshade)	Foliar treatment herbicidal activity, Sorghum (sorghum)	also measured
C=CCn1nnnc1NC(=O)c1ccc(C(F)(F)F)nc1COCc1nc(C(F)(F)F)n(C)n1 [Compound No. 2-121, N-(1-allyl-1H-tetrazol-5-yl)-2-(((1-methyl-5-(trifluoromethyl)-1H-1,2,4-triazol-3-yl)methoxy)methyl)-6-(trifluoromethyl)nicotinamide]	30	30	0	0	0	0	0	0	0	0	40	40	50	20	70	0	10	–	–	pest or weed control at 50 g/ha (black nightshade): 95%
Cn1nnnc1NC(=O)c1ccc(C(F)(F)F)nc1COCc1nc(C(F)(F)F)n(C)n1 [Compound No. 2-118, N-(1-methyl-1H-tetrazol-5-yl)-2-(((1-methyl-5-(trifluoromethyl)-1H-1,2,4-triazol-3-yl)methoxy)methyl)-6-(trifluoromethyl)nicotinamide]	50	90	0	0	0	0	0	0	0	0	95	90	95	95	90	0	40	100	–	–
Cn1nc(COCc2nc(C(F)(F)F)ccc2C(=O)Nc2nnnn2C)nc1CF [Compound No. 2-126, 2-(((5-(fluoromethyl)-1-methyl-1H-1,2,4-triazol-3-yl)methoxy)methyl)-N-(1-methyl-1H-tetrazol-5-yl)-6-(trifluoromethyl)nicotinamide]	50	90	0	0	0	0	1	1	3	2	20	80	80	80	90	0	60	100	–	–
Cn1nc(COCc2nc(C(F)(F)F)ccc2C(=O)Nc2nnnn2C)nc1I [Compound No. 2-137]	–	–	0	0	0	0	0	0	0	0	–	–	–	–	–	0	–	100	60	Foliar treatment herbicidal activity, Indian jointvetch (indian jointvetch): 100; Foliar treatment herbicidal activity, Crabgrass (crabgrass): 95; Foliar treatment herbicidal activity, Bindweed (bindweed): 70; Foliar treatment herbicidal activity, velvet leaf (velvetleaf; scale 0-100): 100; Foliar treatment herbicidal activity, Fall panicum (fall panicum): 50; Foliar treatment herbicidal activity, barnyard grass (barnyard grass): 95; Foliar treatment herbicidal activity, Cocklebur (cocklebur): 98
CCn1nnc(COCc2nc(C(F)(F)F)ccc2C(=O)Nc2nnnn2CC)n1 [Compound No. 2-88, N-(1-ethyl-1H-tetrazol-5-yl)-2-(((2-ethyl-2H-tetrazol-5-yl)methoxy)methyl)-6-(trifluoromethyl)nicotinamide]	60	20	0	0	0	0	0	0	0	0	70	70	40	–	70	0	–	100	0	Foliar treatment herbicidal activity, barnyard grass (barnyard grass): 0
CCCn1nnnc1NC(=O)c1ccc(C(F)(F)F)nc1COCc1nc(C(F)(F)F)n(C)n1 [Compound No. 2-120, 2-(((1-methyl-5-(trifluoromethyl)-1H-1,2,4-triazol-3-yl)methoxy)methyl)-N-(1-propyl-1H-tetrazol-5-yl)-6-(trifluoromethyl)nicotinamide]	60	95	0	0	0	0	0	0	0	0	50	80	90	80	90	–	10	100	–	pest or weed control at 50 g/ha (quack grass): 10%
CCn1nnc(COCc2nc(C(F)(F)F)ccc2C(=O)Nc2nnnn2C)n1 [Compound No. 2-87, 2-(((2-ethyl-2H-tetrazol-5-yl)methoxy)methyl)-N-(1-methyl-1H-tetrazol-5-yl)-6-(trifluoromethyl)nicotinamide]	20	–	0	0	0	0	0	0	0	0	80	70	40	10	60	0	–	–	0	Foliar treatment herbicidal activity, Crabgrass (crabgrass): 0; pest or weed control at 50 g/ha (black nightshade): 98%
